{"source": "patent US8039603B2", "about": "“Nucleic acid and corresponding protein entitled 121P1F1 useful in treatment and detection of cancer” (Agensys, Inc., priority 2001, dated 2011)", "tested_on": "LAPC-4 cells", "experiment": "Androgen regulation of 121P1F1 in vitro (Northern blot)", "format": "cell-based, human", "settings": "LAPC-4 cells in charcoal-stripped medium", "procedure": "FIG. 22. Androgen regulation of 121P1F1 in vitro. […] cells were grown in charcoal-stripped medium and stimulated with the synthetic androgen mibolerone, for either 14 or 24 hours. Northern blot was performed with 10 μg of total RNA for each sample, and probed with the 121P1F1 SSH fragment. A picture of the ethidium-bromide staining of the RNA gel is also presented (lowest panel). Hybridization of the same northern blot with the androgen-dependent gene TMPRSS2 confirms the quality of the androgen deprivation.\nSince 121P1F1 was derived from a […] LAPC-9 AD (28 days post-castration) subtraction, an assay was performed for androgen regulation of 121P1F1 (FIG. 22). LAPC-4 cells were grown in charcoal-stripped medium and stimulated with the synthetic androgen mibolerone, for either 14 or 24 hours. It was shown that the expression of 121P1F1 went down in absence of normal serum, and is modulated in presence of mibolerone, 24 hours after stimulation. The experimental samples were confirmed by testing for the expression of the androgen-regulated prostate cancer gene TMPRSS2.", "data": [{"compound": "C[C@@H]1CC2=CC(=O)CC[C@@H]2[C@H]2CC[C@@]3(C)[C@@H](CC[C@]3(C)O)[C@@H]21", "note": "[mibolerone]", "values": [{"measurement": "expression of 121P1F1", "setting": "24 hours after stimulation", "value": "modulated"}, {"measurement": "TMPRSS2 expression", "setting": "at 14 and 24 hours", "value": "induced"}]}]}
